# Test system: 782815-120-R-J1-PDC complex spheroid viability
# Assay: Anticancer human tumor 782815-120-R-J1-PDC patient-derived colon adenocarcinoma cell line growth inhibition [RAS]
# Settings: for viability, T/C: stronger effect = lower value
# Procedure, shortened: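 Tumour cells grown as complex spheroids with HUVEC endothelial cells and mesenchymal stem cells, treated with RAS pathway inhibitor combinations. Each agent spans half-log steps from near clinical Cmax, or 10 microM where Cmax is unknown.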
# 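Note: spheroids exposed to compounds for 7 days before reading.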
# 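Throughout, for viability, T/C: 100% = DMSO vehicle control viability.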
structure (smiles),measurement,setting,value
CCN1CCN(Cc2ccc(Nc3ncc(F)c(-c4cc(F)c5nc(C)n(C(C)C)c5c4)n3)nc2)CC1 + C#Cc1c(F)ccc2cc(O)cc(-c3ncc4c(N5CC6CCC(C5)N6)nc(OCC56CCCN5CC(F)C6)nc4c3F)c12,IC50,"curve of first compound, second compound 0.0316 µM",> 1 µM
same,IC50,"curve of first compound, second compound 0.1 µM",> 1 µM
same,IC50,"curve of first compound, second compound 0.316 µM",> 1 µM
same,IC50,"curve of first compound, second compound 1 µM",> 1 µM
same,IC50,"curve of first compound, second compound 3.16 µM",> 1 µM
same,IC50,"curve of first compound, second compound 10 µM",> 1 µM
same,"viability, T/C","second compound 0.0316 µM, first compound 0.00316 µM",103%
same,"viability, T/C","second compound 0.0316 µM, first compound 0.01 µM",105%
same,"viability, T/C","second compound 0.0316 µM, first compound 0.0316 µM",112%
same,"viability, T/C","second compound 0.0316 µM, first compound 0.1 µM",102%
same,"viability, T/C","second compound 0.0316 µM, first compound 0.316 µM",109%
same,"viability, T/C","second compound 0.0316 µM, first compound 1 µM",123%
same,"viability, T/C","second compound 0.1 µM, first compound 0.00316 µM",107%
same,"viability, T/C","second compound 0.1 µM, first compound 0.01 µM",104%
same,"viability, T/C","second compound 0.1 µM, first compound 0.0316 µM",95.8%
same,"viability, T/C","second compound 0.1 µM, first compound 0.1 µM",104%
same,"viability, T/C","second compound 0.1 µM, first compound 0.316 µM",113%
same,"viability, T/C","second compound 0.1 µM, first compound 1 µM",130%
same,"viability, T/C","second compound 0.316 µM, first compound 0.00316 µM",108%
same,"viability, T/C","second compound 0.316 µM, first compound 0.01 µM",101%
same,"viability, T/C","second compound 0.316 µM, first compound 0.0316 µM",100%
same,"viability, T/C","second compound 0.316 µM, first compound 0.1 µM",110%
same,"viability, T/C","second compound 0.316 µM, first compound 0.316 µM",106%
same,"viability, T/C","second compound 0.316 µM, first compound 1 µM",119%
same,"viability, T/C","second compound 1 µM, first compound 0.00316 µM",110%
same,"viability, T/C","second compound 1 µM, first compound 0.01 µM",109%
same,"viability, T/C","second compound 1 µM, first compound 0.0316 µM",108%
same,"viability, T/C","second compound 1 µM, first compound 0.1 µM",103%
same,"viability, T/C","second compound 1 µM, first compound 0.316 µM",111%
same,"viability, T/C","second compound 1 µM, first compound 1 µM",113%
same,"viability, T/C","second compound 3.16 µM, first compound 0.00316 µM",103%
same,"viability, T/C","second compound 3.16 µM, first compound 0.01 µM",99.2%
same,"viability, T/C","second compound 3.16 µM, first compound 0.0316 µM",101%
same,"viability, T/C","second compound 3.16 µM, first compound 0.1 µM",104%
same,"viability, T/C","second compound 3.16 µM, first compound 0.316 µM",128%
same,"viability, T/C","second compound 3.16 µM, first compound 1 µM",119%
same,"viability, T/C","second compound 10 µM, first compound 0.00316 µM",109%
same,"viability, T/C","second compound 10 µM, first compound 0.01 µM",107%
same,"viability, T/C","second compound 10 µM, first compound 0.0316 µM",95.3%
same,"viability, T/C","second compound 10 µM, first compound 0.1 µM",107%
same,"viability, T/C","second compound 10 µM, first compound 0.316 µM",120%
same,"viability, T/C","second compound 10 µM, first compound 1 µM",125%
CCn1c(-c2cc(N3CCN(C)CC3)cnc2C(C)OC)c2c3cc(ccc31)-c1csc(n1)CC(NC(=O)C1CC1C)C(=O)N1CCCC(N1)C(=O)OCC(C)(C)C2 (stereo unspecified),"viability, T/C",compound 0.000949 µM,84.7% [middle of 8 runs]
same,"viability, T/C",compound 0.003 µM,60.1% [middle of 8 runs]
same,"viability, T/C",compound 0.00949 µM,35.1% [middle of 8 runs]
same,"viability, T/C",compound 0.03 µM,20.7% [middle of 8 runs]
same,"viability, T/C",compound 0.0949 µM,16.4% [middle of 8 runs]
same,"viability, T/C",compound 0.3 µM,14.7% [middle of 7 runs]
same,IC50,"compound alone, run of 07/09/2024",4.66 nM [middle of 8 runs]
CCC(CC)c1cc(NC2CCC(N)C2)n2nccc2n1 (stereo unspecified) + CCn1c(-c2cc(N3CCN(C)CC3)cnc2C(C)OC)c2c3cc(ccc31)-c1csc(n1)CC(NC(=O)C1CC1C)C(=O)N1CCCC(N1)C(=O)OCC(C)(C)C2,IC50,"curve of first compound, second compound 0.000949 µM",2.02 µM
same,IC50,"curve of first compound, second compound 0.003 µM",1.06 µM
same,IC50,"curve of first compound, second compound 0.00949 µM",< 0.0316 µM
same,IC50,"curve of first compound, second compound 0.03 µM",< 0.0316 µM
same,IC50,"curve of first compound, second compound 0.0949 µM",< 0.0316 µM
same,IC50,"curve of first compound, second compound 0.3 µM",< 0.0316 µM
same,"viability, T/C","second compound 0.000949 µM, first compound 0.0316 µM",69.7%
same,"viability, T/C","second compound 0.000949 µM, first compound 0.1 µM",75.9%
same,"viability, T/C","second compound 0.000949 µM, first compound 0.316 µM",74.2%
same,"viability, T/C","second compound 0.000949 µM, first compound 1 µM",84.7%
same,"viability, T/C","second compound 0.000949 µM, first compound 3.16 µM",33.4%
same,"viability, T/C","second compound 0.000949 µM, first compound 10 µM",1.4%
same,"viability, T/C","second compound 0.003 µM, first compound 0.0316 µM",56.2%
same,"viability, T/C","second compound 0.003 µM, first compound 0.1 µM",53.3%
same,"viability, T/C","second compound 0.003 µM, first compound 0.316 µM",57.4%
same,"viability, T/C","second compound 0.003 µM, first compound 1 µM",52%
same,"viability, T/C","second compound 0.003 µM, first compound 3.16 µM",12.1%
same,"viability, T/C","second compound 0.003 µM, first compound 10 µM",1.08%
same,"viability, T/C","second compound 0.00949 µM, first compound 0.0316 µM",32.4%
same,"viability, T/C","second compound 0.00949 µM, first compound 0.1 µM",37.1%
same,"viability, T/C","second compound 0.00949 µM, first compound 0.316 µM",33.6%
same,"viability, T/C","second compound 0.00949 µM, first compound 1 µM",33.7%
same,"viability, T/C","second compound 0.00949 µM, first compound 3.16 µM",6.65%
same,"viability, T/C","second compound 0.00949 µM, first compound 10 µM",1.2%
same,"viability, T/C","second compound 0.03 µM, first compound 0.0316 µM",21.2%
same,"viability, T/C","second compound 0.03 µM, first compound 0.1 µM",20%
same,"viability, T/C","second compound 0.03 µM, first compound 0.316 µM",19.9%
same,"viability, T/C","second compound 0.03 µM, first compound 1 µM",20.9%
same,"viability, T/C","second compound 0.03 µM, first compound 3.16 µM",3.02%
same,"viability, T/C","second compound 0.03 µM, first compound 10 µM",1.53%
same,"viability, T/C","second compound 0.0949 µM, first compound 0.0316 µM",18.6%
same,"viability, T/C","second compound 0.0949 µM, first compound 0.1 µM",19.7%
same,"viability, T/C","second compound 0.0949 µM, first compound 0.316 µM",16.1%
same,"viability, T/C","second compound 0.0949 µM, first compound 1 µM",16.4%
same,"viability, T/C","second compound 0.0949 µM, first compound 3.16 µM",2.74%
same,"viability, T/C","second compound 0.0949 µM, first compound 10 µM",1.31%
same,"viability, T/C","second compound 0.3 µM, first compound 0.0316 µM",16.6%
same,"viability, T/C","second compound 0.3 µM, first compound 0.1 µM",15.1%
same,"viability, T/C","second compound 0.3 µM, first compound 0.316 µM",16.5%
same,"viability, T/C","second compound 0.3 µM, first compound 1 µM",15.2%
same,"viability, T/C","second compound 0.3 µM, first compound 3.16 µM",1.69%
same,"viability, T/C","second compound 0.3 µM, first compound 10 µM",1.33%

# Source: PubChem BioAssay AID2060887 (Molecular Pharmacology Branch, DTP, NCI, 2025)
